Laboratory results reported in patent publication US5464617A, “β-lactam compounds” (Hoffmann-La Roche Inc., priority 1994, dated 1995).
Converted amounts (≈) assume the structure as drawn. Where a name gives a salt, the structure may show the parent alone.

How the values were obtained:
[1] = test system: Citrobacter freundii 1982; experiment: MIC in vitro of a 1:4 combination of ceftriaxone with a compound of formula I (Test D); type: cell-based; conditions: for MIC C. freundii 1982 (D): test D; for MIC C. freundii 1982: Table 2
Method: The minimum inhibitory concentration in vitro ([…]) of a 1:4 combination of ceftriaxone with a compound of formula I against Citrobacter freundii 1982 was measured and compiled in Table 2 hereinafter.

[2] = test system: E. coli 1346; experiment: Antibacterial activity of the products per se, serial dilution method in liquid medium (Test E); type: cell-based; conditions: product per se; for MIC E. coli 1346 (E): test E; for MIC E. coli 1346: Table 3, liquid medium
Description: The antibacterial activity of the products per se is illustrated on the basis of Table 3 hereinafter, the minimum inhibitory concentration […] in vitro against E. coli 1346 being determined using the serial dilution method in liquid medium: […]

[3] = Table 4, 1:4 combination of ceftriaxone with the compound
[4] = 1:4 combination of ceftriaxone with the compound
[5] = Table 5, particularly preferred products, 1:4 combination with ceftriaxone
[6] = Table 5, particularly preferred products

Row | Compound | MIC C. freundii 1982 (D) [1, 3] [µg/mL] | MIC E. coli 1346 (E) ([2]; Table 4) [µg/mL] | other results
1 | Cc1cc(SCC2=C(C(=O)O)N3C(=O)[C@H]4NC[C@@H](O2)[C@H]43)n2nc(C(N)=O)nc2n1 [Example 29(d), (1aS,3aR,6bS)-5-(2-Carbamoyl-5-methyl[1,2,4]triazolo-[1,5-a]pyrimidin-7-ylsulphanylmethyl)-1-oxo-1,1a,2,3,3a,6b-hexahydro-4-oxa-2,6a-diazacydobut[cd]indene-6-carboxylic acid] | 8 | 4 (≈ 9.58 µM) | –
2 | Cn1nc(O)c(=O)nc1SCC1=C(C(=O)O)N2C(=O)[C@H]3NC[C@@H](C1)[C@H]32 [Example 53, (1aS,3aR,6bR)-5-(2,5-Dihydro-6-hydroxy-2-methyl-5-oxo-1,2,4-triazin-3-ylsulphanylmethyl)-1-oxo-1a,2,3,3a,4,6 b-hexahydro-1H-2,6a-diazacyclobut[cd]indene-6-carboxylic acid trifluoroacetate] | 4 | 2 | –
3 | O=C(O)C1=C(CSc2ncccn2)C[C@@H]2CN(C(=O)C(F)(F)F)[C@@H]3C(=O)N1[C@H]23 [72(b), (1aS,3aR,6bR)-1-Oxo-5-(pyrimidin-2-ylsulphanylmethyl)-2-trifluoroacetyl-1a,2,3,3a,4,6b-hexahydro-1H-2,6a-diazacyclobut[cd]indene-6-carboxylic acid sodium salt] | 2 | 4 | –
4 | Cc1nnc(SCC2=C(C(=O)O)N3C(=O)[C@@H]4[C@H]3[C@H](C2)CN4C(=O)CSCC(N)=O)s1 [65(g), (1aS,3aR,6bR)-2-Carbamoylmethylsulphanylacetyl-5-(5-methyl-1,3,4-thiadiazol-2-ylsulphanylmethyl)-1-oxo-1a,2,3,3a,4,6b-hexahydro-1H-2,6a-diazacyclobut[cd]indene-6-carboxylic acid sodium salt] | 0.5 | 8 | –
5 | Cn1c(O)nnc1SCC1=C(C(=O)O)N2C(=O)[C@H]3NC[C@@H](S1)[C@H]32 [40(d), (1aS,3aR,6bS)-5-(5-Hydroxy-4-methyl-4H-[1,2,4]-triazol-3-ylsulphanylmethyl)-1-oxo-4-thia-1,1a,2,3,3a,6b-hexahydro-2,6a-diazacyclobut[cd]indene-6-carboxylic acid] | 2 | 8 (≈ 22.5 µM) | –
6 | Cc1nnc(SCC(=O)N2C[C@H]3CC(COC(N)=O)=C(C(=O)O)N4C(=O)[C@@H]2[C@@H]34)s1 [Example 58(e), (1aS,3aR,6bR)-5-Carbamoyloxymethyl-2-(5-methyl-1,3,4-thiadiazol-2-ylsulphanylacetyl)-1-oxo-1a,2,3,3a,4,6b-hexahydro-1H-2,6a-diazacyclobut[cd]indene-6-carboxylic acid sodium salt] | 0.25 | 8 | –
7 | Cn1nnnc1SCC(=O)N1C[C@H]2CC(OS(C)(=O)=O)=C(C(=O)O)N3C(=O)[C@@H]1[C@@H]23 [11(b), (1aS,3aR,6bR)-5-Methylsulphonyloxy-2-(1-methyl-1H-tetrazol-5-ylsulphanylacetyl)-1-oxo-1a,2,3,3a,4,6b-hexahydro-1H-2,6a-diazacyclobut[cd]indene-6-carboxylic acid sodium salt] | – | – | MIC C. freundii 1982 [1, 4]: 0.5 µg/mL; MIC E. coli 1346 [2]: 16 µg/mL
8 | NC(=O)OCC1=C(C(=O)O)N2C(=O)[C@@H]3[C@H]2[C@H](C1)CN3C(=O)CNc1ccccc1 [58(h), (1aS,3aR,6bR)-5-Carbamoyloxymethyl-1-oxo-2-phenylaminoacetyl-1a,2,3,3a,4,6b-hexahydro-1 H-2,6a-diazacyclobut[cd]indene-6-carboxylic acid sodium salt] | 1 | 32 | –
9 | Cn1nnnc1SCC1=C(C(=O)O)N2C(=O)[C@@H]3[C@H]2[C@@H](CN3C(=O)Nc2ccc(C(N)=O)cc2)O1 [31(i), (1aS,3aR,6bS)-2-(4-Carbamoyl-phenylcarbamoyl)-5-(1-methyl-1H-tetrazol-5-ylsulphanylmethyl)-1-oxo-1,1a,2,3,3a,6b-hexahydro-4-oxa-2,6a-diazacyclobut[cd]indene-6-carboxylic acid sodium salt] | 0.5 | 8 | –
10 | CC(=O)N1C[C@H]2CC(CSc3nnc(C)s3)=C(C(=O)O)N3C(=O)[C@@H]1[C@@H]23 [65(a), (1aS,3aR,6bR)-2-Acetyl-5-(5-methyl-1,3,4-thiadiazol-2-ylsulphanylmethyl)-1-oxo-1a,2,3,3a,4,6b-hexahydro-1H-2,6a-diazacyclobut[cd]indene-6-carboxylic acid sodium salt] | 1 | 0.5 | –
11 | C=CC1=C(C(=O)O)N2C(=O)[C@@H]3[C@H]2[C@H](C1)CN3C(=O)Nc1ccc(O)cc1 [46(a), (1aS,3aR,6bR)-2-(4-Hydroxy-phenylcarbamoyl)-1-oxo-5-vinyl-1a,2,3,3a,4,6b-hexahydro-1H-2,6a-diazacyclobut[cd]indene-6-carboxylic acid sodium salt] | 1 | 64 | –
12 | NC(=O)OCC1=C(C(=O)O)N2C(=O)[C@@H]3[C@H]2[C@H](C1)CN3C(=O)Nc1ccc(O)cc1 [27(a), (1aS,3aR,6bR)-5-Carbamoyloxymethyl-2-(4-hydroxyphenylcarbamoyl)-1-oxo-1a,2,3,3a,4,6b-hexahydro-1H-2,6a-diazacyclobut[cd]indene-6-carboxylic add sodium salt] | – | – | MIC C. freundii 1982 (D) [1, 5]: ≤ 0.06 µg/mL; MIC E. coli 1346 (E) [2, 6]: > 32 µg/mL
13 | CC(=O)N1C[C@H]2CC(COC(=O)NCC(N)=O)=C(C(=O)O)N3C(=O)[C@@H]1[C@@H]23 [96(a), (1aS,3aR,6bR)-2-Acetyl-5-carbamoylmethylcarbamoyloxymethyl-1-oxo-1a,2,3,3a,4,6b-hexahydro-1H-2,6a-diazacyclobut[cd]indene-6-carboxylic acid sodium salt] | 2 | 8 | –
14 | [N-]=[N+]=NCC1=C(C(=O)O)N2C(=O)[C@H]3NC[C@@H](C1)[C@H]32 [Example 81, (1aS,3aR,6bR)-5-Azidomethyl-1-oxo-1a,2,3,3a,4,6b-hexahydro-1H-2,6a-diazacyclobut[cd]indene-6-carboxylic acid trifluoroacetate] | 1 | 1 | –
15 | CS(=O)(=O)NCC1=C(C(=O)O)N2C(=O)[C@H]3NC[C@@H](C1)[C@H]32 [Example 87, (1aS,3aR,6bR)-5-Methylsulphonylaminomethyl-1-oxo-1a,2,3,3a,4,6b-hexahydro-1H-2,6a-diazacyclobut[cd]indene-6-carboxylic acid trifluoroacetate] | 4 | 16 | –
16 | O=C(O)C1=C(CSc2ccncc2)C[C@@H]2CN(C(=O)C(F)(F)F)[C@@H]3C(=O)N1[C@H]23 [19(g), (1aS,3aR,6bR)-1-Oxo-5-(pyridin-4-ylsulphanylmethyl)-2-trifluoroacetyl-1a,2,3,3a,4,6b-hexahydro-1H-2,6a-diazacyclobut[cd]indene-6-carboxylic acid sodium salt] | – | – | MIC C. freundii 1982 (D) [1, 5]: 1 µg/mL; MIC E. coli 1346 (E) [2, 6]: 1 µg/mL
17 | NC(=O)OCC1=C(C(=O)O)N2C(=O)[C@@H]3[C@H]2[C@H](C1)CN3C(=O)NCCc1cccs1 [27(g), (1aS,3aR,6bR)-5-Carbamoyloxymethyl-1-oxo-2-(2-thiophen-2-yl-ethylcarbamoyl)-1a,2,3,3a,4,6b-hexahydro-1H-2,6a-diazacyclobut[cd]indene-6-carboxylic acid sodium salt] | 0.5 | > 32 | –
18 | NC(=O)OCC1=C(C(=O)O)N2C(=O)[C@@H]3[C@H]2[C@H](C1)CN3C(=O)Nc1ccc(C(N)=O)cc1 [27(b), (1aS,3aR,6bR)-5-Carbamoyloxymethyl-2-(4-carbamoylphenylcarbamoyl)-1-oxo-1a,2,3,3a,4,6b-hexahydro-1H-2,6a-diazacyclobut[cd]indene-6-carboxylic acid sodium salt] | – | – | MIC C. freundii 1982 (D) [1, 5]: ≤ 0.06 µg/mL; MIC E. coli 1346 (E) [2, 6]: > 32 µg/mL
19 | CS(=O)(=O)OC1=C(C(=O)O)N2C(=O)[C@H]3NC[C@@H](C1)[C@H]32 [Example 8, (1aS,3aR,6bR)-5-Methylsulphonyloxy-1-oxo-1a,2,3,3a,4,6b-hexahydro-1H-2,6a-diazacyclobut[cd]indene-6-carboxylic acid trifluoroacetate] | – | – | MIC C. freundii 1982 [1, 4]: 1 µg/mL; MIC E. coli 1346 [2]: 2 µg/mL
20 | Cc1nnc(SCC2=C(C(=O)O)N3C(=O)[C@H]4NC[C@@H](O2)[C@H]43)s1 [Example 29(a), (1aS,3aR,6bS)-5-(5-Methyl-1,3,4-thiadiazol-2-ylsulphanylmethyl)-1-oxo-1,1a,2,3,3a,6b-hexahydro-4-oxa-2,6a-diazacyclobut[cd]indene-6-carboxylic acid sodium salt] | 1 | 1 | –
21 | Cc1nnc(SC2=C(C(=O)O)N3C(=O)[C@@H]4[C@H]3[C@H](C2)CN4C(=O)Nc2ccc(O)cc2)s1 [3(j), (1aS,3aR,6bR)-2-(4-Hydroxyphenylcarbamoyl)-5-(5-methyl-1,3,4-thiadiazol-2-ylsulphanyl)-1-oxo-1a,2,3,3a,4,6b-hexahydro-1H-2,6a-diazacyclobut[cd]indene-6-carboxylic acid sodium salt] | – | – | MIC E. coli 1346 [2]: 32 µg/mL
